US8658677B2, “Pyridyl-2-methylamino compounds, compositions and uses thereof” (Aria Neurosciences Inc., priority 2011, dated 2014)
Entries after “also recorded” stand apart in the source; their conditions may differ.

Columns and labels:
Aβ plaques = experiment: Aβ plaque load and brain Aβ level after chronic treatment; format: in vivo, mice
Protocol: Female APPSW/PS1dE9 AD double transgenic (Tg) mice received daily intraperitoneal injections of ARN2966 (50 mg/kg) starting from the age of six months until the age of 10 months.
Following the course of ARN2966 treatment, animals were sacrificed, and the load of Thioflavin-S (Th-S) stained Aβ plaques (% of histological section area covered by plaques) was quantified in the brain cortex on serial coronal sections through the rostrocaudal axis of the right hemisphere as described by us [Sadowski 2004]. The left hemisphere was homogenized (1:10 weight/volume), and aliquots of the homogenate were used to measure the level of Aβ oligomers (Aggregated β-Amyloid ELISA Kit, [Invitrogen]) or subjected to formic acid (FA) extraction to determine total Aβ40 and Aβ42 brain levels via sandwich ELISAs discriminating C-terminal configuration of both peptides as described by us [Sadowski 2006]. […] Levels of FA extracted Aβ40 and Aβ42 were reduced by 82% (p<0.001) and 56% (p<0.001; FIG. 6C).
(§1) FIGS. 6.(A, B) ARN2966 treatment reduces load of Aβ plaques (n=10 ARN2966, n=15 Vehicle). (B) Representative photomicrograph of Th-S stained brain sections from vehicle and ARN2966 treated 10 month old, female APPSW/PS1dE9reveal a difference in the load of Aβ plaques. […] (D) Reduced Aβ40 and Aβ42 levels in FA extracted brain homogenate, which represent the total brain content of Aβ peptides in ARN2966 treated animals (ELISA). (E) Reduced soluble Aβ40 level in DEA extracted brain homogenate, of ARN2966 and Compound E treated mice (ELISA). […] Aβ concentrations in (C) (D) and (E) are given per gram of wet brain. All values are given as mean±SEM. Statistical analysis was done using two-tailed unpaired t-test, following confirmation of normal distribution of data using Shapiro-Wilk test.

APP mRNA = APP mRNA level in 751APPSW CHO cells; format: cell-based, human
Protocol: D. APP was immunoprecipitated with 22C11 mAb against its N-terminus. Representative radiographs (B) and densitometric results averaged from three independent experiments are shown (A). […] Two sets of experiments were conducted using either actin or GAPDH as housekeeping genes.

Log P = format: physicochemical
[1] = tested on: SK-N-SH human neuroblastoma cells; experiment: Toxicity by MTT cell viability and LDH release assays; format: cell-based
Protocol: The effect of 0.01-100 μmol/L concentrations of investigational compounds was tested on the viability of the N2a murine neuroblastoma cell line (American Type Culture Collection, Manassas, Va.). N2a cells were grown in Eagle's minimal essential medium with the addition of 10% fetal bovine serum, streptomycin and gentomycin (Sigma, St. Louis, Mo.), harvested with 2% trypsin and plated at 10,000 cells/100 μL per well in flatbottom, 96-well microtiter plates. The cells were allowed to attach to the plate overnight in an incubator (37° C., 5% CO2) and in the following morning stocks of investigational compounds (50 mmol/L stock diluted in DMSO) were added to cells to achieve the final concentration 0.01-100 μmol/L. Adequate amounts of DMSO (Dimethyl sulfoxide, Sigma, St. Louis, Mo.) were added to control cells. Cells were grown in the presence of investigational compounds for 48 h and then their viability was assessed using a metabolic assay, which is based on cleavage of the yellow tetrazolium salt (MTT) to purple formazan crystals by viable cells. The MTT assay (Roche Molecular Biochemicals, Indianapolis, Ind.) was performed according to the manufacturer's instructions. The results from cell culture neurotoxicity studies were evaluated by one-way analysis of variance, followed by a Dunnett's test as a post hoc analysis.
As shown in FIG. 2 (MTT assay), the compounds were tested for toxicity in SK-N-SH human neuroblastoma cells using MTT cell viability and LDH release (membrane integrity) assays.

APP = experiment: Acute treatment experiment: brain soluble Aβ40, APP, C99 and C83; format: in vivo, mice; conditions: five days ip, ARN2966 50 mg/kg/day, Compound E 3 mg/kg/day
Protocol: Furthermore, we conducted an acute treatment experiment where six months old female APPSW/PS1dE9 mice (n=3/group) were treated for five days with ARN2966 (50 mg/kg/day), Compound E (3 mg/kg/day) or Vehicle injected intraperitoneally. Mice were killed three hours after the last injections. The level of soluble Aβ40 was measured in the brain aliquots following diethylamine (DEA) extraction. It was lower in ARN2966 and Compound E treated groups by 39% (p<0.05) and 60% (p<0.05) comparing to vehicle treated mice, respectively (p<0.05; FIG. 6E).
as §1

Aβ40 = molecular target: T1, Aβ40 (Homo sapiens, UniProt P05067); experiment: Oligomerization assay; format: biochemical
T1 construct: host or cells: chemical solid-phase peptide synthesis (no expression host)
Protocol: […] monomerized synthetic Aβ40 was incubated in 0.1M Tris pH 7.0, T=37° C. for 8 days in the presence of 0-100 μM concentration of compounds. […] An arrow indicates Aβ monomers clustered in ill developed protofibril. (C) Oligomerization assay. ARN4261 and ARN4224 reduced the amount of Aβ oligomers by 78% and 74%, respectively p<0.001. A compound 69b (GKLVFNmgA) was used as a positive control. 69b is homologous to Aβ sequence 17-21 and contains N-methyl glycine (Nmg), which renders it capable of anti-fibrillization and anti-oligomerization effect. (D) Principle of oligomerization assay. 100 μM Aβ40 was aggregated alone or with the addition of 10 μM of tested compounds [1:10 compound: Ab ratio] for 24 h in conditions promoting oligomers assembly, i.e., DMEM/F-12 medium+0.2% SDS, T=4° C. Prior to SDS-PAGE in non-reducing conditions samples were treated with glutaraldehyde. A strong smear of Aβ oligomers is seen between 37 and 70 KDa markers (arrows) in lane 2, and a dense band below the 25 KDa marker reflects Aβ monomers non-dissociated by 10% polyacrylamide gel. No oligomers above 37 KDa marker are seen in lane 1 containing only Aβ monomers run as a control. […] (E) TEM of Aβ oligomers. […] Yellow arrowhead indicates smaller oligomers.

[2] = 50 mg/kg/day ip, age six to ten months, ELISA

T1 sequence (P05067 672-711): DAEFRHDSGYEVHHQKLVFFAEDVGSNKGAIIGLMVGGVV

Row | SMILES | reduction in the Aβ load (unbiased quantification, Thioflavin-S) (Aβ plaques; 50 mg/kg daily ip, age six to 10 months) [%] | reduction of load of Th-S positive plaques in the brain cortex (Aβ plaques; 50 mg/kg/day ip, age six to ten months) [%] | reduction of FA extracted Aβ40 brain level (Aβ plaques; [2]) [%] | reduction of FA extracted Aβ42 brain level (Aβ plaques; [2]) [%] | reduction of level of Aβ oligomers in brain homogenate (Aβ plaques; [2]) [%] | APP mRNA level (APP mRNA) | logP (Log P) | toxicity ([1]; test not specified) | APP, C99 and C83 signal in brain homogenate (western immunoblotting) (APP) | lowering of soluble Aβ40 (DEA extraction) in brain vs vehicle (APP; killed three hours after last injection) [%] | TEM of Aβ oligomers (Aβ40) | reduction of the amount of Aβ oligomers (Aβ40; 100 μM Aβ40, 10 μM compound, 24 h, DMEM/F-12 + 0.2% SDS, 4° C.) [%] | amount of oligomers on SDS-PAGE (Aβ40; 100 μM Aβ40, 10 μM compound, 24 h, lanes 3-5) | toxicity ([1]; 0.1-100 μM)
1 | Oc1ccccc1NCc1ccccn1 [ARN2966, 2-[(pyridine-2-ylmethyl)-amino]-phenol] | 25.8 | 21.9 | 82 | 56 | 20.5 | No change; also recorded: lack of substantial effect | 1.96 | not toxic | evident reduction of APP, C99, and C83 signal | 39 |  |  |  | 
2 | Oc1ccccc1N=Cc1ccccn1 [ARN4261, 2-(Pyridin-2-ylmethyleneamino)-phenol] |  |  |  |  |  | lack of substantial effect |  |  |  |  | increased number of Aβ monomers and dimers | 78 | reduced amount of oligomers | no toxicity
